In publication PMC12728655, “Engineering an Artificial Myxopyronin Derivative with Enhanced Metabolic Stability via Mutasynthesis” (JACS Au, 2025):
Converted amounts (≈) assume the structure as drawn.

System: Rif^R-M. tuberculosis H37Rv
Test: microbe, parasite or virus in culture
Type: cell-based
Conditions: Mycobacterium tuberculosis

SMILES	MIC [µg/mL]
COC(=O)N/C=C/CC[C@@H](C)c1cc(O)c(C(=O)/C(C)=C/C=C(\C)CCC(F)(F)F)c(=O)o1 [MYX (8)]	1 (≈ 2.12 µM)
CO[C@H]1/C=C/O[C@@]2(C)Oc3c(C)c(O)c4c(O)c(c(/C=N/N5CCN(C)CC5)c(O)c4c3C2=O)NC(=O)/C(C)=C\C=C\[C@H](C)[C@H](O)[C@@H](C)[C@@H](O)[C@@H](C)[C@H](OC(C)=O)[C@@H]1C [rifampin]	> 64
CCC/C(C)=C/C=C(\C)C(=O)c1c(O)cc([C@H](C)CC/C=C/NC(=O)OC)oc1=O [MYX A (1), myxopyronins A]	2 to 4 (≈ 4.79 to 9.58 µM)
